Read-outs that look alike come from different tables or passages of the source.

The values below come from article PMC4694998, “Suppression of β-catenin/TCF transcriptional activity and colon tumor cell growth by dual inhibition of PDE5 and 10” (Oncotarget, 2015).

One test relates to HCT116 colon tumor cells. Kind of test: Growth assay (Cell Titer Glo), HCT116. The class given is cell-based, human. The note with it: for HCT116 colon tumor cell growth: in words, Figure 1B; for IC50: Homo sapiens, HCT-116, 72 h. How it is done: All cell lines were expanded upon delivery, and numerous aliquots of low passage cells were preserved in liquid N2. Cells were passaged no longer than 2 months. Tumor cell lines obtained from ATCC were characterized by STR profiling as performed by ATCC. The NCM460 line was characterized by INCELL as described previously (e.g. tumorigenicity testing). No additional re-authentication of the cell lines was performed except for experimental reasons (e.g. confirmation of cell doubling time, morphology, sensitivity to SS, PDE5/10 expression levels, etc). Cells were plated in 96-well microtiter plates at a density of 5,000 cells per well. For drug treatment, cells were treated with compound or vehicle, and incubated at 37°C for 72 hours. […] For siRNA assays, cells were transfected with siRNA under the same condition described above. The effect of treatment on cell growth was measured using the Cell Titer Glo Assay as specified by the manufacturer (Promega). The IC50 values were determined as described previously. All experiments were repeated a minimum of three times to determine the reproducibility of the results. All error bars represent standard error of the mean (SEM). Statistical analysis of differences between samples was performed using the Student’s t-test.

The test system of test [1] is β-catenin signaling in HCT116 colon tumor cells. Kind of test: Western blotting of β-catenin, cyclin D1, survivin, HCT116. The class given is cell-based, human. How it is done:
Western blotting was performed as described previously. Cells were treated with ADT-094 or vehicle for 8 hours before cell lysates were collected.

Test [2] relates to β-catenin/TCF transcriptional activity in HCT116 cells. Type of test: cell-based. Conditions: HCT116, 24 hours of treatment. Here is the method:
Cells were seeded at a density of 5 × 10^4 cells per well in 24-well tissue culture plates and incubated overnight at 37°C. Cells were transiently transfected with 0.1 μg TOP-FLASH constructs (Millipore) and 0.1 μg β-galactosidase-expressing vector (Promega). After 24 hours of transfection, cells were treated with ADT-094 or vehicle for 24 hours. At the end of treatment, cells were lysed and both luciferase and β-galactosidase activities were measured using kits from Promega. All luciferase activity was normalized to β-galactosidase activity.

Test [3] relates to cGMP PDE activity in HCT116 lysates. Kind of test: cGMP hydrolysis in lysates from HCT116 colon tumor cells. The class given is biochemical, human. The note with it: in words, Figure 1C. How it is done: (§1) PDE activity was measured using the IMAP fluorescence polarization (FP) PDE assay (Molecular Devices) in which binding of hydrolyzed fluorescent cyclic nucleotide substrate to the IMAP reagent increases FP as described previously.

Test [4] concerns NCM460 normal colonocytes. The note with it: as previously reported; cited from earlier work.
In a further test the target is T1, purified ovine COX-1 (Ovis aries, UniProt P05979).
T1 construct: purchased Cayman
T1 sequence (P05979 25-600): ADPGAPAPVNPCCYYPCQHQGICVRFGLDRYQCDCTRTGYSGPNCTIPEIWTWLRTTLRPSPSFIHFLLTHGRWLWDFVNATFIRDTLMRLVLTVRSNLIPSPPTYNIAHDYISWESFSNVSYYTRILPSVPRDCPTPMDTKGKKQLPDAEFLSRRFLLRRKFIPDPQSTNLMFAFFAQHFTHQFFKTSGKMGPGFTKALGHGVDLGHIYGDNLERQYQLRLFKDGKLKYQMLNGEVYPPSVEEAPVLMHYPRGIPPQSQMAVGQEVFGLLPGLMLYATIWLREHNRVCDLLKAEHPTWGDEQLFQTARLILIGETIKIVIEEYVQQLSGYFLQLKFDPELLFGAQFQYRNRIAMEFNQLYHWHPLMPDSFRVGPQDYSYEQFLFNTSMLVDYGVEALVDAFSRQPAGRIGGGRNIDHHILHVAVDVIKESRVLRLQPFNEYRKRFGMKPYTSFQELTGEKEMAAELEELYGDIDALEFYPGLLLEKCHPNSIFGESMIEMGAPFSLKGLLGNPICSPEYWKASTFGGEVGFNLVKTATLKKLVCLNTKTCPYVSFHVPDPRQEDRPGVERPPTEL
Kind of test: COX-1 colorimetric assay. Type of test: biochemical. How it is done:
COX-1 and COX-2 activities were measured using purified ovine COX-1 and COX-2 with colorimetric assay kits obtained from Cayman as previously reported. The activities of COX-1 and COX-2 were measured after the addition of arachidonic acid and incubation at 25°C for 5 min by absorbance at 590 nm as specified by the manufacturer.
(§2) The IC50 values were determined as described previously. All experiments were repeated a minimum of three times to determine the reproducibility of the results. All error bars represent standard error of the mean (SEM). Statistical analysis of differences between samples was performed using the Student’s t-test. A P value of < 0.05 was considered statistically significant.

The target of the next test is T2, PDE5 (Homo sapiens, UniProt O76074).
T2 construct: purchased BPS Biosciences
Kind of test: IMAP fluorescence polarization PDE assay, recombinant PDE5. The class given is biochemical. The note with it: recombinant enzyme. Here is the method: (§3) Recombinant PDE isozymes were purchased from BPS Biosciences. The PDE10 antibody was purchased from GeneTex, while the PDE5 antibody was purchased from Cell Signaling Technologies. Non-targeting control siRNA and PDE10 specific siRNAs were purchased from Qiagen. RNAiMAX transfection reagent was purchased from Invitrogen. DMSO was used as vehicle for all compounds unless otherwise noted. All other reagents were purchased from Sigma.
as §1, §2

In a further test the target is T3, PDE10 (Homo sapiens, UniProt Q9Y233).
T3 construct: purchased BPS Biosciences
T3 sequence (Q9Y233 267-1055): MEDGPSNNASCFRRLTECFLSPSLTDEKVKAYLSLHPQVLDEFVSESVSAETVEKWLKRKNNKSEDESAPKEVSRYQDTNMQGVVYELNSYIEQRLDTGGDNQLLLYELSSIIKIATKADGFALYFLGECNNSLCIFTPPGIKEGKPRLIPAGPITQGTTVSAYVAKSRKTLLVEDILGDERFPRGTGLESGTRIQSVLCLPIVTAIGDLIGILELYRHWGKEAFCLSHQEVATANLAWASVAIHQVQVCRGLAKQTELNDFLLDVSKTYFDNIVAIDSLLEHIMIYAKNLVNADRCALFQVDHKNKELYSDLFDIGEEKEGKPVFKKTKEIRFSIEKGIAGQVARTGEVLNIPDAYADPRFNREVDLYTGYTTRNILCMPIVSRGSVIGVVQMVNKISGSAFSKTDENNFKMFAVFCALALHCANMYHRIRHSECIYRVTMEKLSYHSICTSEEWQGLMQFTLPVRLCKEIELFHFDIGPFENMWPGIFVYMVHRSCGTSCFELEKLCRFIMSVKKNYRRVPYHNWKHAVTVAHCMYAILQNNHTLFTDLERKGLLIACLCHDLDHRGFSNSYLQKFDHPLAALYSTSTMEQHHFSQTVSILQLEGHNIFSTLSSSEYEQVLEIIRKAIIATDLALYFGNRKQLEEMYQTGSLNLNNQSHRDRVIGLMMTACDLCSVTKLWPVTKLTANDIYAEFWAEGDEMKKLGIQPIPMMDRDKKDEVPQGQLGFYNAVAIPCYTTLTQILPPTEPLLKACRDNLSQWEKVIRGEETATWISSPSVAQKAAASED
Kind of test: IMAP fluorescence polarization PDE assay, recombinant PDE10. The class given is biochemical. Conditions: recombinant enzyme. How it is done:
as §3, §1, §2

Another test concerns HT29 colon tumor cells. Kind of test: Growth assay (Cell Titer Glo), HT29. Conditions: Homo sapiens, HT-29, 72 h. Type of test: cell-based. Here is the method: (§4) Human colon tumor cell lines, HCT116, HT29, SW480 and Caco-2 were obtained from the American Type Culture Collection (ATCC) and grown under standard cell culture conditions in RPMI 1640 medium containing 5% serum at 37°C in a humidified atmosphere with 5% CO2. The human colonocyte line, NCM460, that is derived from normal human colon mucosa was obtained from INCELL and grown in INCELL’s enriched M3:10 medium with 10% serum as recommended by supplier. All cell lines were expanded upon delivery, and numerous aliquots of low passage cells were preserved in liquid N2. Cells were passaged no longer than 2 months. Tumor cell lines obtained from ATCC were characterized by STR profiling as performed by ATCC. The NCM460 line was characterized by INCELL as described previously (e.g. tumorigenicity testing). No additional re-authentication of the cell lines was performed except for experimental reasons (e.g. confirmation of cell doubling time, morphology, sensitivity to SS, PDE5/10 expression levels, etc).
(§5) Cells were plated in 96-well microtiter plates at a density of 5,000 cells per well. For drug treatment, cells were treated with compound or vehicle, and incubated at 37°C for 72 hours. All growth assays were performed in 5% serum unless otherwise noted. Deionized water was used as vehicle control for papaverine. For siRNA assays, cells were transfected with siRNA under the same condition described above. The effect of treatment on cell growth was measured using the Cell Titer Glo Assay as specified by the manufacturer (Promega).
as §2

The subject of test [5] is NCM460 normal colonocytes. Kind of test: Growth assay (Cell Titer Glo), NCM460 normal colonocytes. The class given is cell-based, human. The note with it: Homo sapiens, NCM460, 72 h, read-out: NCM460 growth IC50. How it is done: as §4, §5, §2

Turning to `Clc1cccc(Nc2nnc(-c3ccccc3)c3ccccc23)c1` [MY5445, 1-(3-chlorophenylamino)-4-phenylphthalazine], in the test with HCT116 colon tumor cells, the “HCT116 colon tumor cell growth” value was “effectively inhibit”. Also, in [1], the expression of survivin result is “reduced” and the β-catenin levels result was “reduced”. For the same compound, in test [2], the β-catenin/TCF transcriptional activity entry is “reduced”. Also, the “cGMP hydrolysis in HCT116 lysates” value in [3] was “inhibited cGMP hydrolysis”. In test [4], the growth of colonocytes entry is “did not significantly affect”.
As to `CSc1ccc(/C=C2/C(C)=C(CC(=O)O)c3cc(F)ccc32)cc1` [SS, Sulindac sulfide, reference compound], the IC50 on purified ovine COX-1 is 1.2 µM; on PDE5, 38 µM; at PDE10, 70 µM; with HCT116 colon tumor cells (read-out: HCT116 growth IC50, 72 hours of treatment), 51 µM; with HCT116 colon tumor cells (read-out: HCT116 growth IC50, Figure 3C, luciferase-based ATP assay, 72 hours), 51.1 µM; with HT29 colon tumor cells (read-out: HT29 growth IC50, 72 hours of treatment), 68 µM. Also, the IC50 in the test on HT29 colon tumor cells (read-out: HT29 growth IC50, Figure 3C, luciferase-based ATP assay, 72 hours) is 63.8 µM; in test [5], more than 100 µM.
Regarding `COc1ccc(Cc2nccc3cc(OC)c(OC)cc23)cc1OC` [papaverine], the “HCT116 colon tumor cell growth” value in the test on HCT116 colon tumor cells is “effectively inhibit”. For the same compound, in test [1], the expression of survivin result was “reduced” and the β-catenin levels result is “reduced”. In addition, in test [2], the β-catenin/TCF transcriptional activity entry was “reduced”. The “cGMP hydrolysis in HCT116 lysates” value in test [3] is recorded as “inhibited cGMP hydrolysis”. In addition, in test [4], the growth of colonocytes entry is recorded as “did not significantly affect”.
